Laboratory results: ChEMBL document CHEMBL5506073, “Discovery of Novel Ortho-Aminophenol Derivatives Targeting Lipid Peroxidation with Potent Antiferroptotic Activities” (J Med Chem, 2024)
Active and inactive are the calls of the source.

Key:
HT-1080 [1] = experiment: Inhibition of RSL3-induced ferroptosis in human HT-1080 cells assessed as cell viability upto 10 uM incubated for 24 hrs by CCK8 assay; format: functional, cell-based
Mus musculus [2] = experiment: Protection against APAP-induced acute liver injury in overnight fasted C57BL/6 mouse model assessed as decrease in plasma AST level at 10 mg/kg, ip administered 1 hr prior to APAP treatment measured after 12 hrs post-APAP treatment under continuous fasting condition; format: functional, organism-based; conditions: time 13.0 hrs
Mus musculus [3] = experiment: Protection against APAP-induced acute liver injury in overnight fasted C57BL/6 mouse model assessed as decrease in plasma ALT level at 10 mg/kg, ip administered 1 hr prior to APAP treatment measured after 12 hrs post-APAP treatment under continuous fasting condition; format: functional, organism-based; conditions: time 13.0 hrs
Mus musculus [4] = experiment: Protection against APAP-induced acute liver injury in overnight fasted C57BL/6 mouse model assessed as reduction in 4-HNE formation in liver at 10 mg/kg, ip administered 1 hr prior to APAP treatment measured after 12 hrs post-APAP treatment under continuous fasting condition by IHC analysis; format: functional, organism-based; conditions: time 13.0 hrs
HT-1080 [5] = experiment: Inhibition of RSL3-induced ferroptosis in human HT-1080 cells assessed as cell viability incubated for 24 hrs by CCK8 assay; format: functional, cell-based; conditions: HT-1080, 24 h
[6] = Antioxidant activity assessed as DPPH radical scavenging activity at 10 uM incubated for 30 mins by absorbance based assay; format: functional
HT-1080 [7] = experiment: Inhibition of RSL3-induced ferroptosis in human HT-1080 cells assessed as cell viability at 0.5 uM incubated for 24 hrs by CCK8 assay; format: functional, cell-based
HT-1080 [8] = experiment: Inhibition of RSL3-induced ferroptosis in human HT-1080 cells assessed as cell viability at 200 nM incubated for 24 hrs by CCK8 assay; format: functional, cell-based
HKC [9] = experiment: Inhibition of RSL3-induced ferroptosis in human HKC cells assessed as cell viability at 200 nM incubated for 24 hrs by CCK8 assay; format: functional, cell-based
HK-2 [10] = experiment: Inhibition of RSL3-induced ferroptosis in human HK-2 cells assessed as cell viability at 200 nM incubated for 24 hrs by CCK8 assay; format: functional, cell-based
KHOS/NP [11] = experiment: Inhibition of RSL3-induced ferroptosis in human KHOS/NP cells assessed as cell viability at 200 nM incubated for 24 hrs by CCK8 assay; format: functional, cell-based
SW480 [12] = experiment: Inhibition of RSL3-induced ferroptosis in human SW480 cells assessed as cell viability at 200 nM incubated for 24 hrs by CCK8 assay; format: functional, cell-based
HTR-8/SVneo [13] = experiment: Inhibition of RSL3-induced ferroptosis in human HTR-8/SVneo cells assessed as cell viability at 200 nM incubated for 24 hrs by CCK8 assay; format: functional, cell-based
HT-1080 [14] = experiment: Inhibition of FIN56-induced ferroptosis in human HT-1080 cells assessed as cell viability at 200 nM incubated for 24 hrs by CCK8 assay; format: functional, cell-based
HKC [15] = experiment: Inhibition of FIN56-induced ferroptosis in human HKC cells assessed as cell viability at 200 nM incubated for 24 hrs by CCK8 assay; format: functional, cell-based
HK-2 [16] = experiment: Inhibition of FIN56-induced ferroptosis in human HK-2 cells assessed as cell viability at 200 nM incubated for 24 hrs by CCK8 assay; format: functional, cell-based
KHOS/NP [17] = experiment: Inhibition of FIN56-induced ferroptosis in human KHOS/NP cells assessed as cell viability at 200 nM incubated for 24 hrs by CCK8 assay; format: functional, cell-based
SW480 [18] = experiment: Inhibition of FIN56-induced ferroptosis in human SW480 cells assessed as cell viability at 200 nM incubated for 24 hrs by CCK8 assay; format: functional, cell-based
HTR-8/SVneo [19] = experiment: Inhibition of FIN56-induced ferroptosis in human HTR-8/SVneo cells assessed as cell viability at 200 nM incubated for 24 hrs by CCK8 assay; format: functional, cell-based
HT-1080 [20] = experiment: Inhibition of ferroptosis in human HT-1080 cells assessed as reversal of RSL3-induced cell shrinkage; format: functional, cell-based
HT-1080 [21] = experiment: Inhibition of ferroptosis in human HT-1080 cells assessed as reversal of RSL3-induced swelling; format: functional, cell-based
HT-1080 [22] = experiment: Inhibition of ferroptosis in human HT-1080 cells assessed as reversal of RSL3-induced membrane rupture; format: functional, cell-based
HT-1080 [23] = experiment: Inhibition of ferroptosis in human HT-1080 cells assessed as reversal of RSL3-induced normal morphological loss; format: functional, cell-based
HT-1080 [24] = experiment: Inhibition of RSL3-induced lipid peroxidation in human HT-1080 cells assessed as reduction in green fluorescence by C11-BODIPY581/591 probe based analysis; format: functional, cell-based
HT-1080 [25] = experiment: Inhibition of RSL3-induced lipid peroxidation in human HT-1080 cells assessed as reduction in MDA adduct accumulation by ELISA; format: functional, cell-based
HT-1080 [26] = experiment: Effect on lipid metabolism in human HT-1080 cells assessed as change in ACSL4 mRNA level by qRT-PCR analysis; format: functional, cell-based
HT-1080 [27] = experiment: Effect on lipid metabolism in human HT-1080 cells assessed as change in ALOX15 mRNA level by qRT-PCR analysis; format: functional, cell-based
HT-1080 [28] = experiment: Effect on lipid metabolism in human HT-1080 cells assessed as change in COX2 mRNA level by qRT-PCR analysis; format: functional, cell-based
HT-1080 [29] = experiment: Effect on glutathione metabolic pathway in human HT-1080 cells assessed as change in GPX4 mRNA level by qRT-PCR analysis; format: functional, cell-based
HT-1080 [30] = experiment: Effect on glutathione metabolic pathway in human HT-1080 cells assessed as change in SLC7A11 mRNA level by qRT-PCR analysis; format: functional, cell-based
HT-1080 [31] = experiment: Effect on iron metabolism in human HT-1080 cells assessed as change in DMT1 mRNA level by qRT-PCR analysis; format: functional, cell-based
HT-1080 [32] = experiment: Effect on iron metabolism in human HT-1080 cells assessed as change in TFRC mRNA level by qRT-PCR analysis; format: functional, cell-based
HT-1080 [33] = experiment: Effect on iron metabolism in human HT-1080 cells assessed as change in FTH1 mRNA level by qRT-PCR analysis; format: functional, cell-based
[34] = Antioxidant activity assessed as DPPH radical scavenging activity at 20 uM incubated for 30 mins by absorbance based assay; format: functional
Mus musculus [35] = experiment: Protection against kidney ischemia-reperfusion injury in C57BL/6 mouse model assessed as decrease in serum creatinine level at 10 mg/kg, ip administered twice 1 hr prior to ischemia onset measured after 24 hrs post-ischemia; format: functional, organism-based; conditions: time 25.0 hrs
Mus musculus [36] = experiment: Protection against kidney ischemia-reperfusion injury in C57BL/6 mouse model assessed as decrease in BUN level at 10 mg/kg, ip administered twice 1 hr prior to ischemia onset measured after 24 hrs post-ischemia; format: functional, organism-based; conditions: time 25.0 hrs
Mus musculus [37] = experiment: Protection against kidney ischemia-reperfusion injury in C57BL/6 mouse model assessed as decrease in renal tubule dilation at 10 mg/kg, ip administered twice 1 hr prior to ischemia onset measured after 24 hrs post-ischemia by H and E staining based analysis; format: functional, organism-based; conditions: time 25.0 hrs
Mus musculus [38] = experiment: Protection against kidney ischemia-reperfusion injury in C57BL/6 mouse model assessed as decrease in brush edges loss in kidney at 10 mg/kg, ip administered twice 1 hr prior to ischemia onset measured after 24 hrs post-ischemia by H and E staining based analysis; format: functional, organism-based; conditions: time 25.0 hrs
Mus musculus [39] = experiment: Protection against kidney ischemia-reperfusion injury in C57BL/6 mouse model assessed as decrease in cytoplasmic vacuoles in kidney at 10 mg/kg, ip administered twice 1 hr prior to ischemia onset measured after 24 hrs post-ischemia by H and E staining based analysis; format: functional, organism-based; conditions: time 25.0 hrs
Mus musculus [40] = experiment: Protection against kidney ischemia-reperfusion injury in C57BL/6 mouse model assessed as decrease in KIM-1 level in kidney at 10 mg/kg, ip administered twice 1 hr prior to ischemia onset measured after 24 hrs post-ischemia by IHC analysis; format: functional, organism-based; conditions: time 25.0 hrs
Mus musculus [41] = experiment: (§1) Protection against APAP-induced acute liver injury in overnight fasted C57BL/6 mouse model assessed as normal pathology of liver at 10 mg/kg, ip administered 1 hr prior to APAP treatment measured after 12 hrs post-APAP treatment under continuous fasting condition by H and E staining based analysis; format: functional, organism-based; conditions: time 13.0 hrs
Mus musculus [42] = experiment: Protection against APAP-induced acute liver injury in overnight fasted C57BL/6 mouse model assessed as reversal of native liver architecture at 10 mg/kg, ip administered 1 hr prior to APAP treatment measured after 12 hrs post-APAP treatment under continuous fasting condition by H and E staining based analysis; format: functional, organism-based; conditions: time 13.0 hrs
Mus musculus [43] = experiment: as §1, with “reduction in necrotic areas” for “normal pathology”; format: functional, organism-based; conditions: time 13.0 hrs

Nc1c(O)cccc1C(=O)O
inactive: inhibition (HT-1080 [1])

CC(C)COC(=O)c1cccc(O)c1N
inactive: Activity (HT-1080 [26]) | Activity (HT-1080 [27]) | Activity (HT-1080 [28]) | Activity (HT-1080 [29]) | Activity (HT-1080 [30]) | Activity (HT-1080 [31]) | Activity (HT-1080 [32]) | Activity (HT-1080 [33])
158 nM: EC50 (HT-1080 [5])
active: Activity (Mus musculus [2]) | Activity (Mus musculus [3]) | Activity (Mus musculus [4]) | Activity [6] | inhibition (HT-1080 [7]) | inhibition (HT-1080 [8]) | inhibition (HKC [9]) | inhibition (HK-2 [10]) | inhibition (KHOS/NP [11]) | inhibition (SW480 [12]) | inhibition (HTR-8/SVneo [13]) | inhibition (HT-1080 [14]) | inhibition (HKC [15]) | inhibition (HK-2 [16]) | inhibition (KHOS/NP [17]) | inhibition (SW480 [18]) | inhibition (HTR-8/SVneo [19]) | inhibition (HT-1080 [20]) | inhibition (HT-1080 [21]) | inhibition (HT-1080 [22]) | inhibition (HT-1080 [23]) | inhibition (HT-1080 [24]) | inhibition (HT-1080 [25]) | Activity [34] | Activity (Mus musculus [35]) | Activity (Mus musculus [36]) | Activity (Mus musculus [37]) | Activity (Mus musculus [38]) | Activity (Mus musculus [39]) | Activity (Mus musculus [40]) | Activity (Mus musculus [41]) | Activity (Mus musculus [42]) | Activity (Mus musculus [43])

Cc1ccc(CSc2nnc(-c3cccc(O)c3N)o2)cc1
inactive: Activity (HT-1080 [26]) | Activity (HT-1080 [27]) | Activity (HT-1080 [28]) | Activity (HT-1080 [29]) | Activity (HT-1080 [30]) | Activity (HT-1080 [31]) | Activity (HT-1080 [32]) | Activity (HT-1080 [33])
46 nM: EC50 (HT-1080 [5])
active: Activity (Mus musculus [2]) | Activity (Mus musculus [3]) | Activity (Mus musculus [4]) | inhibition (HT-1080 [8]) | inhibition (HKC [9]) | inhibition (HK-2 [10]) | inhibition (KHOS/NP [11]) | inhibition (SW480 [12]) | inhibition (HTR-8/SVneo [13]) | inhibition (HT-1080 [14]) | inhibition (HKC [15]) | inhibition (HK-2 [16]) | inhibition (KHOS/NP [17]) | inhibition (SW480 [18]) | inhibition (HTR-8/SVneo [19]) | inhibition (HT-1080 [20]) | inhibition (HT-1080 [21]) | inhibition (HT-1080 [22]) | inhibition (HT-1080 [23]) | inhibition (HT-1080 [24]) | inhibition (HT-1080 [25]) | Activity [34] | Activity (Mus musculus [35]) | Activity (Mus musculus [36]) | Activity (Mus musculus [37]) | Activity (Mus musculus [38]) | Activity (Mus musculus [39]) | Activity (Mus musculus [40]) | Activity (Mus musculus [41]) | Activity (Mus musculus [42]) | Activity (Mus musculus [43])
